Literature values in patent US20160001001A1 (priority 2013, published 2016).

Settings: in vivo

CN1CC[C@]23c4c5ccc(O)c4O[C@H]2[C@@H](O)C=C[C@H]3[C@H]1C5 [Morphine]
Onset time: 8 min
Time elapsing until the maximum analgesic effect is reached: 25 min
